Three compounds from patent publication US11118109B2, “Organic luminogens” (THE HONG KONG UNIVERSITY OF SCIENCE AND TECHNOLOGY, priority 2017, dated 2021) can be followed below.

One data set can be described thus: LogP (Table 1). It is filed as physicochemical.
The test system of the next data set is HeLa cells. Put plainly: Cell imaging of living HeLa cells by confocal microscopy, co-staining with MitoTracker Green FM and NucRed Live. It is filed as cell-based. The conditions noted are these: incubation 60 min at 37° C. As to the method: For cell culturing, HeLa cells were cultured in MEM containing 10% FBS and antibiotics (100 units/mL penicillin and 100 µg/mL streptomycin) in a 5% CO2 humidity incubator at 37° C. All culture mediums supplemented with 10% heat-inactivated FBS, 100 units/mL penicillin and 100 µg/mL streptomycin. Before experiment, the cells were precultured until confluence was reached.
For cell imaging, HeLa cells were grown overnight on a 35 mm petri dish with a cover slip at 37° C. After the removal of the medium, the adherent cells were washed twice with 1× phosphate buffered saline (PBS) buffer. 4MOTPO were then added to the chamber. After incubation for 1 h, then washed and incubated with MitoTracker® Green FM and NucRed® Live for 10 min, followed by further washing three times with 1×PBS buffer. The cells were imaged on Zeiss laser scanning confocal microscope and analyzed using ZEN 2009 software.
4MOTPO was tested in living HeLa cells to test the efficacy of the compound as a biosensor for bioimaging. Cells were incubated with 4MOTPO for 60 min at 37° C. and then washed and incubated with MitoTracker® Green FM and NucRed® Live for 10 min, followed by further washing.

As usually defined, the logP is the decadic logarithm of the partition coefficient of the neutral form, usually between octanol and water. Read a low logP as lower lipophilicity. In the case of `COc1ccc(-[n+]2c(-c3ccccc3)oc(-c3ccccc3)c2-c2ccccc2)cc1` [1MOTPO], in “LogP (Table 1)”, the log partition coefficient (logP) was 1.02. The same measure, in the same setting: the same measure for `COc1ccc(-c2oc(-c3ccccc3)[n+](-c3ccc(OC)cc3)c2-c2ccc(OC)cc2)cc1` [3MOTPO]: 1.29.

`COc1ccc(-c2oc(-c3ccc(OC)cc3)[n+](-c3ccc(OC)cc3)c2-c2ccc(OC)cc2)cc1` [4MOTPO] returned a log partition coefficient (logP) in “LogP (Table 1)” of 1.35. For the same compound, the “subcellular localisation versus MitoTracker Green FM and NucRed Live” value in the data set on HeLa cells (co-staining 10 min) is “can accumulate in mitochondria”. In addition, in the data set on HeLa cells (confocal microscopy), the “fluorescence observed in cells (intracellular distribution)” value is “intense blue fluorescence was observed in the cellular cytoplasms”.
